Data on 1 cell line can be found in the supplement of paper PMC10307832.

What all share (experiment): relative viability (nuclei count vs DMSO), 5 days (fraction); higher = more cells survive
Compound in the assay “Motesanib + Decitabine”: CC1(C)CNc2cc(NC(=O)c3cccnc3NCc3ccncc3)ccc21 [Motesanib] + Nc1ncn([C@H]2C[C@H](O)[C@@H](CO)O2)c(=O)n1 [Decitabine] (partner 2 µM)
In outline:
(§1)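 Nuclei were stained with Hoechst during a one-step fixation (final 0.05% Triton X-100, 1% formaldehyde, 1 ug/ml Hoechst) carried out 5 days after dosing, then counted on 4× images. The cells, lung cancer lines in 1536-well plates, had been dosed by pin tool the day after seeding with one drug alone or a fixed anchor-drug dose plus five library-drug doses (not always all listed) in √10 steps. Relative viability is the nuclei count in treated wells divided by that in vehicle wells, and each value is the median of duplicate plates.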

Compound in the assay “Motesanib + Vorinostat”: CC1(C)CNc2cc(NC(=O)c3cccnc3NCc3ccncc3)ccc21 [Motesanib] + O=C(CCCCCCC(=O)Nc1ccccc1)NO [Vorinostat] (partner 1 µM)
The procedure, abridged:
as §1

Compound in assay [1]: C[C@@]1(C(=O)Nc2ccc(F)nc2)CCCN1c1nc(Nc2cc(C3CC3)n[nH]2)c2cccn2n1 + CS(=O)(=O)CCNCc1ccc(-c2ccc3ncnc(Nc4ccc(OCc5cccc(F)c5)c(Cl)c4)c3c2)o1 [Lapatinib] (partner 2 µM)
The procedure, abridged:
as §1

Compound in the assay “Motesanib + Alpelisib”: CC1(C)CNc2cc(NC(=O)c3cccnc3NCc3ccncc3)ccc21 [Motesanib] + Cc1nc(NC(=O)N2CCC[C@H]2C(N)=O)sc1-c1ccnc(C(C)(C)C(F)(F)F)c1 [Alpelisib] (partner 2 µM)
In outline: as §1

Take UMC-11: the relative viability with Motesanib + Decitabine (first compound 0.01 µM) came to 0.611; with Motesanib + Decitabine (first compound 0.03162 µM), 0.677; with Motesanib + Decitabine (first compound 0.1 µM) it was 0.331; with Motesanib + Decitabine (first compound 0.3162 µM), 0.653; in the assay with Motesanib + Decitabine (first compound 1 µM) it was 0.724; with Motesanib + Vorinostat (first compound 0.01 µM), 0.44. Moreover, the relative viability with Motesanib + Vorinostat (first compound 0.03162 µM) was 0.438; with Motesanib + Vorinostat (first compound 0.1 µM), 0.345; with Motesanib + Vorinostat (first compound 0.3162 µM), 0.426; with Motesanib + Vorinostat (first compound 1 µM) it was 0.476; in assay [1] (first compound 0.04 µM) it was 1.02; in assay [1] (first compound 0.1265 µM) it was 1.02. Moreover, the relative viability was 0.826 in assay [1] (first compound 0.4 µM); 0.805 in assay [1] (first compound 1.265 µM); 0.923 with Motesanib + Alpelisib (first compound 0.01 µM); 0.973 with Motesanib + Alpelisib (first compound 0.03162 µM); 0.981 with Motesanib + Alpelisib (first compound 0.1 µM); 1.03 with Motesanib + Alpelisib (first compound 0.3162 µM). For the same cell line, the relative viability with Motesanib + Alpelisib (first compound 1 µM) was determined as 1.03.
